From US20260029420A1, “ANTI-CB2 ANTIBODIES AND THEIR USE IN A FLOW CYTOMETRY ASSAY TO MEASURE CELL SURFACE CB2 EXPRESSION” (Hoffmann-La Roche Inc., priority 2022, published 2026)
“And” between values parts separate entries of the source, which are not always exact repeats. Equal values may be shown once. Read-outs that look alike come from different tables or passages of the source.

Tests used:
CB2 [1] = biological target: T1, CB2 (Homo sapiens, UniProt P34972); assay: CB2 internalization flow cytometry assay in whole blood of diabetic patients and matched healthy participants; assay type: cell-based
T1 construct: measured in whole blood samples from nine different healthy human volunteers of working-age; endogenous in cells; host or cells: B-cells (and basophils and other leukocytes) in human whole blood
T1 sequence (P34972 whole entry): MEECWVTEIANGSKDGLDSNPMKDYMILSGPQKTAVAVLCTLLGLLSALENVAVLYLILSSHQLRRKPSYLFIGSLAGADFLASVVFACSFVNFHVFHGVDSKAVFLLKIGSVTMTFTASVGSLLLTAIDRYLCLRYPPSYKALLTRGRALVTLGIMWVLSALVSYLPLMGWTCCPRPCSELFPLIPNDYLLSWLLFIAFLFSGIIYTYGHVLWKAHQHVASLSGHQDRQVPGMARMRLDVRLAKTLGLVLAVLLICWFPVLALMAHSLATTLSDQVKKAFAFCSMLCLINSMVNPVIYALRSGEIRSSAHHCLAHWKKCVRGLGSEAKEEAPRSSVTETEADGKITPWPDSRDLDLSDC
Description: FIGS. 9A-9E: IC50 value determination for RG7774 in different cell sub-populations in whole blood of diabetic patients and matched healthy participants. Median Fluorescence intensity (MFI)±SD of CB2 surface expression in diabetic patients (open dots, dotted line) and age-matched healthy participants (closed dots, continuous line) after exposure to increasing concentrations of RG7774. Mean MFI for individual data points is based on duplicate measures FIG. 9A: B-cells (CD45^+ CD3^− CD14^− CD19^+). FIG. 9B: Basophils (CD45^+ CD3^− CD14^− CD19^− CD193^+ IgE^+). FIG. 9C: Monocytes (CD45^+ CD3^− CD14^+). FIG. 9D: T-cells (CD45^+ CD3^+ CD14^−). FIG. 9E: NK cells (CD45^+ CD3^− CD14^− CD19^− CD193^− IgE^− CD16^+ CD56^+).
In order to understand, the exposure-response relationship for a drug-induced CB2 internalization on blood cell populations, in particular on B-cells and Basophils, whole blood of nine different diabetic type 1 and 2 patients and eight demographically and age-matched healthy participants were treated with 8 compound concentrations in duplicates to determine the IC50 of RG7774.
Human whole blood from diabetic patients and age-matched healthy participants was incubated with RG7774 for 1 hour at 37° C. followed by incubation with the anti-human CB2 Ab 1/622. The expression of CB2 on the surface of the different blood cell types was analyzed using the lineage marker mix specific for B-cells, Basophils, T-cells, NK-cells and Monocytes. MFI values at 0 μM RG7774 were set as 100% baseline receptor expression for each cell type.

CB2 [2] = biological target: CB2 (Macaca fascicularis, UniProt G7NVV5); assay: In vitro CB2 internalization flow cytometry assay in Cynomolgus whole blood; assay type: cell-based, Cynomolgus monkey
Chain of CB2 (Macaca fascicularis, UniProt G7NVV5) (G7NVV5 1-360): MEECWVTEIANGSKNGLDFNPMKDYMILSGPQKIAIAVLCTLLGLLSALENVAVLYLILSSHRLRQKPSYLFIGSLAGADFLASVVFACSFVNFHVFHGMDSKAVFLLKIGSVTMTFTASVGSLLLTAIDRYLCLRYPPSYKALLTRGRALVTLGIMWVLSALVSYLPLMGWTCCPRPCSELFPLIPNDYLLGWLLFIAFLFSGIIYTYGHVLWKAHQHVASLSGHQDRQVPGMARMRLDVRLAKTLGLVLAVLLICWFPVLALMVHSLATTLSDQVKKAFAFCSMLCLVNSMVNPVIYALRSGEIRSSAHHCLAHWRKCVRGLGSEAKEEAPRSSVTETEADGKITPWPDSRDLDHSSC
Procedure: FIG. 10: In vitro IC50 determination of CB2 internalization on B-cells in whole blood from Cynomolgus monkeys. Cynomolgus whole blood was incubated with RG7774 for 1 hour at 37° C. followed by incubation with the anti-human CB2 antibody 1/622. The expression of CB2 on the surface of B-cells was analyzed using a lineage marker mix specific for B-cells and T-cells. The B/T-cell CB2 MFI ratio was calculated and normalized to baseline. 0 μM was set as 100% baseline receptor expression.
In order to establish whether the CB2 surface assay is cross-reactive in Cynomolgus monkey, blood obtained from five different healthy Cynomolgus monkey has been tested in vitro and the individual IC50 values for RG7774 and maximum reduction of CB2 surface expression in whole blood determined using 8 different compound concentrations in duplicates (FIG. 10, Table 8).

CB2 [3] = biological target: T1, CB2; assay: Phase I clinical trial CB2 target engagement on B-cells in healthy volunteers; assay type: in vivo; conditions: for time of nadir (lowest CB2 surface expression) post-dose: single oral dose
Procedure: FIG. 13: Arithmetic Mean (+SD) Percentage Change-from-Baseline (CFB) of CB2-Receptor Target Engagement on B-cells in Blood versus Time Following Single Oral Dose Administration of 0.75 mg to 300 mg RG7774 in the Fasted State (n=6 on active drug vs 2 on placebo per dose level).
FIG. 14: Arithmetic Mean (+SD) Percentage Change-from-Baseline (CFB) of CB2-Receptor Target Engagement on B-cells in Blood versus Time Following Single Oral Dose Administration of 100 mg RG7774 in fasted and fed state.
FIG. 15: Arithmetic Mean (+SD) Percentage Change-from-Baseline (CFB) of CB2-Receptor Target Engagement on B-cells in Blood versus Time Following Multiple Oral Dose Administration of 20 mg to 300 mg RG7774 once daily for 14 Days.
The clinical utility of the newly developed CB2 flow cytometry assay as a measure for target engagement in a clinical setting was confirmed by its successful implementation in a phase I clinical trial in healthy volunteers. In the clinical setting B/T-cell ratio was not used as it introduced higher variability relative to the baseline normalized B-cell data alone.
In a first step, oral administration of a single ascending dose (SAD) of RG7774 in the range between 0.75 mg and 300 mg in the fasted state was assessed. Following oral administration of RG774, the onset of CB2 internalization was rapid, with the nadir (lowest CB2 surface expression) achieved at 4 hours post-dose for doses below 10 mg RG7774, and at 1 hour post-dose for doses at 10 mg to 30 mg RG7774 (FIG. 13). For the two highest tested doses of 100 mg and 300 mg RG7774, the time to reach the nadir shifted with the area under the effect curve increasing. […] This indicates successful target engagement of RG7774 upon oral dosing. Furthermore, the assay was utilized to inform stopping rules for dose escalation in the SAD part of the first-in-human (FIH) trial.
In a third part of the FIH study, the effects of multiple ascending doses (MAD) of 20 mg to 300 mg RG7774 administered once daily over 14 days on CB2 internalization were investigated (FIG. 15).

[4] = individual donors, DM type 1, value in parentheses = excluded outlier subject
[5] = individual donors, matched healthy participants (HP)
[6] = 20 mg to 300 mg once daily over 14 days

## Cn1nnnc1Cn1nnc2c(N3CC[C@H](O)C3)nc(C(C)(C)C)nc21 [RG7774, (S)-1-[5-tert-Butyl-3-(1-methyl-1H-tetrazol-5-ylmethyl)-3H-[1,2,3]triazolo [4,5-d]pyrimidin-7-yl]-pyrrolidin-3-ol]
CB2 [1]; Basophils, both groups on average, read-out: Emax
  Emax: ~60%
CB2 [1]; DM (all) (n = 8), read-out: Mean Emax (Basophils) ± SD per diagnosis
  Emax: 60.4 ± 9.5%
CB2 [1]; DM type 1 (n = 3), read-out: Mean Emax (B-cells) ± SD per diagnosis
  Emax: 60.5 ± 2.8%
CB2 [1]; DM type 1 (n = 3), read-out: Mean Emax (Basophils) ± SD per diagnosis
  Emax: 65.9 ± 2.2%
CB2 [1]; DM type 2 (n = 5), read-out: Mean Emax (B-cells) ± SD per diagnosis
  Emax: 53.6 ± 14.5%
CB2 [1]; DM type 2 (n = 5), read-out: Mean Emax (Basophils) ± SD per diagnosis
  Emax: 57 ± 10.9%
CB2 [1]; DM vs working-age healthy participants
  Fold change vs HPs of mean IC50 (CB2 on B-cells): 1.8x
CB2 [1]; Individual IC50 (B-cells), individual donors, DM type 1, value in parentheses = excluded outlier subject
  IC50: 225 nM and 126 nM and 1060 nM
CB2 [1]; Individual IC50 (B-cells), individual donors, DM type 2
  IC50: 335 nM and 57.9 nM
CB2 [1]; Individual IC50 (Basophils), individual donors, DM type 1, value in parentheses = excluded outlier subject
  IC50: 72 nM and 38.1 nM and 31.7 nM and 154 nM
CB2 [1]; Individual IC50 (Basophils), individual donors, DM type 2
  IC50: 61 nM and 25.7 nM and 54.6 nM and 22.9 nM and 44.4 nM
CB2 [1]; Individual IC50 (Basophils), individual donors, matched healthy participants (HP)
  IC50: 22.1 nM and 23.5 nM and 26.5 nM and 58.1 nM and 55.8 nM and 77.3 nM and 80.1 nM
CB2 [1]; Matched HPs (n = 8), read-out: Mean Emax (Basophils) ± SD per diagnosis
  Emax: 59.3 ± 4.5%
CB2 [1]; Matched Healthy vs working-age healthy participants
  Fold change vs HPs of mean IC50 (CB2 on B-cells): 2.6 x
CB2 [1]; Mean IC50 (Basophils) ± SD per diagnosis, DM (all) (n = 8)
  IC50: 43.8 ± 17.5 nM
CB2 [1]; Mean IC50 (Basophils) ± SD per diagnosis, DM type 1 (n = 3)
  IC50: 47.2 ± 21.7 nM
CB2 [1]; Mean IC50 (Basophils) ± SD per diagnosis, DM type 2 (n = 5)
  IC50: 41.7 ± 17 nM
CB2 [1]; Mean IC50 (Basophils) ± SD per diagnosis, Matched HPs (n = 8)
  IC50: 57.2 ± 32.8 nM
CB2 [1]; diabetic patients and matched healthy participants relative to working-age healthy participants
  fold higher exposure to achieve half maximum internalization of the CB2 on B-cells: 2-3 fold
CB2 [1]; [4]
  Individual Emax (B-cells): 62.79% and (59.35) %
  Individual Emax (Basophils): 68.43% and 64.41% and (57.09) %
CB2 [1]; individual donors, DM type 1, value in parentheses = excluded outlier subject, read-out: Individual Emax (B-cells)
  Emax: 62%
CB2 [1]; individual donors, DM type 1, value in parentheses = excluded outlier subject, read-out: Individual Emax (Basophils)
  Emax: 64.9%
CB2 [1]; individual donors, DM type 2
  Individual Emax (B-cells): 34.08% and 74.13% and 50.35% and 58.24% and 51.25%
  Individual Emax (Basophils): 41.64% and 62.91% and 54.19% and 70.94%
CB2 [1]; [5]
  Individual Emax (B-cells): 52.88% and 51.18% and 52.64% and 70.18% and 52.40% and 60.22% and 49.16% and 57.11%
  Individual Emax (Basophils): 64.04% and 57.73% and 54% and 58.78% and 62.7%
CB2 [1]; individual donors, matched healthy participants (HP), read-out: Individual Emax (Basophils)
  Emax: 66.1%
CB2 [2]; T-cells, Monocytes and Granulocytes (data not shown)
  reduction of the CB2 expression: has not been observed
CB2 [2]; five Cynomolgus monkeys
  responder status in vitro: One Cynomolgus out of five is a non-responder
CB2 [3]; [6]
  desensitization of CB2 internalization: no desensitization was observed
  steady-state of PD effect: steady-state was reached during the observation period
CB2 [3]; 100 mg single dose, fasted (n=8) vs fed (n=8)
  impact of food consumption on the pharmacodynamic (PD) effects: no relevant impact
CB2 [3]; after 14 days once daily, not yet fully reversed for the two highest doses
  time to reversal of reduction of CB2 surface receptor expression upon stopping the drug: ~1 week
CB2 [3]; single ascending dose 0.75 mg to 300 mg, fasted
  extent of CB2 internalization (CB2 target engagement): increased dose-dependently
CB2 [3]; fasted, doses at 10 mg to 30 mg
  time of nadir (lowest CB2 surface expression) post-dose: 1 h
CB2 [3]; fasted, doses below 10 mg
  time of nadir (lowest CB2 surface expression) post-dose: 4 h
